# Patent US12485121B2, “Antiviral agents for the treatment and prevention of HIV infection” (Pharmasyntez, Joint Stock Company, priority 2020, dated 2025)
# pIC50: −log10 of the molar value.
# Tested on: HIV-1 subtype A strain 12RU 69831
# Test: Inhibition of HIV-1 reproduction / protection of infected MT-4 cells (living cell concentration, p24 production)
# Type: cell-based
# Details: Human immunodeficiency virus 1, MT4, MT-4 cells infected with HIV-1 at a constant virus dose of 300 CCID50; read-out: Activity against HIV-1 12RU 69831 strain (subtype A)
# Description: Evaluation of HIV reproduction inhibition/protection of human cells by anti-HIV products of the present invention was conducted by measuring change in living cells concentration in experimental wells with MT-4 cells infected with HIV-1, as well as by the production of viral protein p24 with adding different concentrations of compounds according to the present invention. Antiviral activity of products against HIV-1 subtype A strain 12RU 69831 was determined, when the cell culture was infected with a constant dose of virus, corresponding to 300 CCID50.
row,Compound,pIC50
1,"Cc1cc(C#N)cc(C)c1Oc1nc(Nc2ccc(C#N)cc2)nc2c1CCN(C(=O)[C@@H]1CCCN1C(=O)OC(C)(C)C)CC2 [BB0274065, (S)-Tert-butyl 2-(4-(4-cyano-2,6-dimethylphenoxy)-2-((cyanophenyl)amino)-6,7,8,9-tetrahydro-5H-pyrimido[4,5-d]azepine-7-carbonyl)pyrrolidine-1-carboxylate]",4.39
2,"COC(=O)N1CCc2nc(Nc3ccc(C#N)cc3)nc(Oc3c(C)cc(C#N)cc3C)c2CC1 [BB0274134, Methyl 4-(4-cyano-2,6-dimethylphenoxy)-2-((4-4-cyanophenyl)amino)-8,9-dihydro-5H-pyrimido[4,5-d]azepine-7(6H)-carboxylate]",7.02
3,"Cc1cc(C#N)cc(C)c1Oc1nc(Nc2ccc(C#N)cc2)nc2c1CN(C(=O)CN1CC(O)C1)CC2 [BB0274052, 4-((2-((4-Cyanophenyl)amino)-6-(2-(3-hydroxyazetidine-1-yl)acetyl)-5,6,7,8-tetrahydropyrido[4,3-d]pyrimidine-4-yl)oxy)-3,5-dimethylbenzonitrile]",6.89
4,"Cc1cc(C#N)cc(C)c1Oc1nc(Nc2ccc(C#N)cc2)nc2c1CCN(C(=O)c1cccnc1)CC2 [BB0274012, 4-((2-((4-Cyanophenyl)amino)-7-nicotinoyl-6,7,8,9-tetrahydro-5H-pyrimido[4,5-d]azepine-4-yl)oxy)-3,5-dimethylbenzonitrile]",5.24
5,"Cc1cc(C#N)cc(C)c1Oc1nc(Nc2ccc(C#N)cc2)nc2c1CN(S(C)(=O)=O)CC2 [BB0273964, 4-((2-((4-Cyanophenyl)amino)-6-(methylsulfonyl)-5,6,7,8-tetrahydropyrido[4,3-d]pyrimidine-4-yl)oxy)-3,5-dimethylbenzonitrile]",6.84
6,"Cc1cc(C=O)cc(C)c1Oc1nc(Nc2ccc(C#N)cc2)nc2c1CCN(C)C2 [BB0273775, 4-((4-(4-Formyl-2,6-dimethylphenoxy)-7-methyl-5,6,7,8-tetrahydro[3,4-d]pyrimidine-2-yl)amino)benzonitrile]",3.53
7,"CSCC[C@H](N)C(=O)N1CCc2nc(Nc3ccc(C#N)cc3)nc(Oc3c(C)cc(C#N)cc3C)c2C1 [BB0274132, 4-((2-((4-cyanophenyl)amino)-6-methionyl-5,6,7,8-tetrahydropyrido[4,3-d]pyrimidin-4-yl)oxy)-3,5-dimethylbenzonitrile]",6.04
8,"Cc1cc(C=O)cc(C)c1Oc1nc(Nc2ccc(C#N)cc2)nc2c1CCN(C(=O)OC(C)(C)C)CC2 [BB0273943, Tert-butyl 2-((4-cyanophenyl)amino)-4-(4-formyl-2,6-dimethylphenyoxy)-8,9-dihydro-5H-pyrimido[4,5-d]azepine-7(6H)-carboxylate]",3.46
9,"Cc1cc(C#N)cc(C)c1Oc1nc(Nc2ccc(C#N)cc2)nc2c1CCN(C(=O)CCl)CC2 [BB0274133, 4-((7-(2-Chloroacetyl)-2-((4-cyanophenyl)amino)-6,7,8,9-tetrahydro-5H-pyrimido[4,5-d]azepine-4-yl)oxy)-3,5-dimethylbenzonitrile]",4.98
10,"Cc1cc(C#N)cc(C)c1Oc1nc(Nc2ccc(C#N)cc2)nc2c1CN(C(=O)[C@H](CC(C)C)NC(=O)OC(C)(C)C)CC2 [BB0274128, (S)-Tert-butyl (1-(4-(4-cyano-2,6-dimethylphenoxy)-2-((4-cyanophenyl)amino)-7,8-dihydropyrido[4,3-d]pyrimidine-6(5H)-yl)-4-methyl-1-oxopentane-2-yl)carbamate]",3.95
11,COCC(C)N1CCc2nc(Nc3ccc(C#N)cc3)nc(Oc3c(C)cc(C#N)cc3C)c2CC1 (centres unmarked) [BB0274080],6.38
12,"Cc1cc(C#N)cc(C)c1Oc1nc(Nc2ccc(C#N)cc2)nc2c1CN(C(=O)OC(C)(C)C)CC2 [BB0273961, Tert-butyl 4-(4-cyano-2,6-dimethylphenoxy)-2-((4-cyanophenyl)amino)-7,8-dihydropyrido[4,3-d]pyrimidine-6(5H)-carboxylate]",4.37
13,"Cc1cc(C#N)cc(C)c1Oc1nc(Nc2ccc(C#N)cc2)nc2c1CCN(C(=O)C1CCN(C(=O)OC(C)(C)C)CC1)CC2 [BB0274025, Tert-butyl 4-(4-(4-cyano-2,6-dimethylphenoxy)-2-((4-cyanophenyl)amino)-6,7,8,9-tetrahydro-5H-pyrimido[4,5-d]asein-7-carbonyl)piperidine-1-carboxylate]",2.49
14,"Cc1cc(C#N)cc(C)c1Oc1nc(Nc2ccc(C#N)cc2)nc2c1CN(C(=O)[C@H](N)C(C)C)CC2 [BB0274127, (R)-4-((6-(2-Amino-3-methylbutanoyl)-2-((4-cyanophenyl)amino)-5,6,7,8-tetrahydropyrido[4,3-d]pyrimidine-4-yl)oxy)-3,5-dimethylbenzonitrile]",4.92
15,"COC(=O)C(=O)N1CCc2nc(Nc3ccc(C#N)cc3)nc(Oc3c(C)cc(C=O)cc3C)c2CC1 [BB0274312, Methyl 2-{2-[(4-cyanophenyl)amino]-4-(4-formyl-2,6-dimethylphenoxy)-5H,6H,7H,8H,9H-pyrimido [4,5-d]azepine-7-yl}-2-oxoacetate]",4.46
16,"Cc1cc(C#N)cc(C)c1Oc1nc(Nc2ccc(C#N)cc2)nc2c1CCN(C(=O)c1ccccn1)CC2 [BB0274010, 4-((2-((4-Cyanophenyl)amino)-7-picolynoyl-6,7,8,9-tetrahydro-5H-pyrimido[4,5-d]azepine-4-yl)oxy)-3,5-dimethylbenzonitrile]",7.21
17,"Cc1cc(C#N)cc(C)c1Oc1nc(Nc2ccc(C#N)cc2)nc2c1CCN(C)C2 [BB0273774, 4-((2-((4-Cyanophenyl)amino)-7-methyl-5,6,7,8-tetrahydropyrido[3,4-d]pyrimidine-4-yl)oxy)-3,5-dimethylbenzonitrile]",3.65
18,"Cc1cc(C#N)cc(C)c1Oc1nc(Nc2ccc(C#N)cc2)nc2c1CN(C(=O)C1CNC1)CC2 [BB0274099, 4-((6-(Azetidine-3-carbonyl)-2-((4-cyanophenyl)amino)-5,6,7,8-tetrahydropyrido[4,3-d]pyrimidine-4-yl)oxy)-3,5-dimethylbenzonitrile]",6.82
19,"C=CCN1CCc2nc(Nc3ccc(C#N)cc3)nc(Oc3c(C)cc(C#N)cc3C)c2CC1 [BB0274144, 4-((7-Allyl-2-((4-cyanophenyl)amino)-6,7,8,9-tetrahydro-5H-pyrimido[4,5-d]azepine-4-yl)oxy)-3,5-dimethylbenzonitrile]",5.79

# Continued by rising pIC50, values first:
row,pIC50,Compound
1,3.64,"Cc1cc(C#N)cc(C)c1Oc1nc(Nc2ccc(C#N)cc2)nc2c1CN(C(=O)[C@H](Cc1ccccc1)NC(=O)OC(C)(C)C)CC2 [BB0274103, (S)-Tert-butyl (1-(4-(4-cyano-2,6-dimethylphenoxy)-2-((4-cyanophenyl)amino)-7,8-dihydropyrido[4,3-d]pyrimidine-6(5H)-yl)-1-oxo-3-phenylpropane-2-yl)carbamate]"
2,3.69,"Cc1cc(C#N)cc(C)c1OC1=NC(Nc2ccc(C#N)cc2)=NC2CCN(C(=O)NC3CCOCC3)CC12 (centres unmarked) [BB0274337, 4-(4-Cyano-2,6-dimethylphenoxy)-2-[(4-cyanophenyl)amino]-N-(oxan-4-yl)-4aH,5H,6H,7H,8H,8aH-pyrido [4,3-d]pyrimidine-6-carboxamide]"
3,3.97,"CSCCC(NC(=O)OC(C)(C)C)C(=O)N1CCc2nc(Nc3ccc(C#N)cc3)nc(Oc3c(C)cc(C#N)cc3C)c2C1 (centres unmarked) [BB0274120, Tert-butyl (1-(4-(4-cyano-2,6-dimethylphenoxy)-2-((4-cyanophenyl)amino)-7,8-dihydropyrido[4,3-d]pyrimidine-6(5H)-yl)-4-(methylthio)-1-oxobutane-2-yl)carbamate]"
4,3.99,"Cc1cc(C#N)cc(C)c1Oc1nc(Nc2ccc(C#N)cc2)nc2c1CN(C(=O)[C@@H](CO)NC(=O)OC(C)(C)C)CC2 [BB0274119, (R)-Tert-butyl (1-(4-(4-cyano-2,6-dimethylphenoxy)-2-((4-cyanophenyl)amino)-7,8-dihydropyrido[4,3-d]pyrimidine-6(5H)-yl)-3-hydroxy-1-oxopropane-2-yl)carbamate]"
5,4.24,Cc1ccc(CN2CCc3nc(Nc4ccc(C#N)cc4)nc(Oc4c(C)cc(C#N)cc4C)c3CC2)o1 [BB0274073]
6,4.57,"Cc1cc(C#N)cc(C)c1Oc1nc(Nc2ccc(C#N)cc2)nc2c1CCN(C(=O)c1ccncc1)CC2 [BB0274011, 4-((2-((4-Cyanophenyl)amino)-7-isonicotinoyl-6,7,8,9-tetrahydro-5H-pyrimido[4,5-d]azepine-4-yl)oxy)-3,5-dimethylbenzonitrile]"
7,4.73,"Cc1cc(C#N)cc(C)c1Oc1nc(Nc2ccc(C#N)cc2)nc2c1CN(C(=O)C(N)Cc1cn[nH]c1)CC2 (centres unmarked) [BB0274121, 4-((6-(2-Amino-3-(1H-pyrazole-4-yl)propanoyl)-2-((4-cyanophenyl)amino)-5,6,7,8-tetrahydropyrido[4,3-d]pyrimidine-4-yl)oxy)-3,5-dimethylbenzonitrile]"
8,6.15,"Cc1cc(C#N)cc(C)c1Oc1nc(Nc2ccc(C#N)cc2)nc2c1CCN(CCC(=O)O)CC2 [BB0274143, 3-(4-(4-Cyano-2,6-dimethylphenoxy)-2-((4-cyanophenyl)amino)-8,9-dihydro-5H-pyrimido[4,5-d]azepine-7(6H)-yl)propanoic acid]"
9,7.90,"Cc1cc(C#N)cc(C)c1Oc1nc(Nc2ccc(C#N)cc2)nc2c1CCN(C(=O)Cn1ccnc1)CC2 [BB0274227, 4-((7-(2-(1H-Imidazole-1-yl)acetyl)-2-((4-cyanophenyl)amino)-6,7,8,9-tetrahydro-5H-pyrimido[4,5-d]azepine-4-yl)oxy)-3,5-dimethylbenzonitrile]"
10,8.10,"Cc1cc(C#N)cc(C)c1Oc1nc(Nc2ccc(C#N)cc2)nc2c1CN(Cc1ccncc1)CC2 [BB0274137, 4-((2-((4-Cyanophenyl)amino)-6-(pyridine-4-ylmethyl)-5,6,7,8-tetrahydropyrido[4,3-d]pyrimidine-4-yl)oxy)-3,5-dimethylbenzonitrile]"
